Patent US4260612A, “Antiallergic nitrogen bridge-head compounds” (Chinoin Gyogyszer es Vecyeszeti Termekek Gyara Rt., priority 1977, dated 1981)

Legend:
allergic reactions = assay: PCA test (antiallergic activity, rats); assay type: in vivo; conditions: for ED50: Rattus norvegicus, iv; for ED50 / percental activity in the PCA test: rats
Description: (§1) The tests were carried out by the PCA test-method (Ovary: J. Immun. 81, 355, 1958) and the Church-test (British J. Pharm. 46, 56-66, 1972; Immunology 29, 527-534, 1975) and as comparing substance disodium chromoglycate is used. The test is carried out in rats.

histamine = assay: Released histamine in vitro (antiallergic tests incl. Church-test); assay type: cell-based, rats; conditions: Rattus norvegicus; read-out: Released histamine in vitro, ED50
Description: as §1

allergic symptoms = conditions: orally; background statement; cited from earlier work

IC50 (histamine) [µM] | SMILES | ED50 (allergic reactions) [µmol/kg] | percental activity in the PCA test (allergic reactions; single i.v. dose of 10 μmole/kg) [%] | percental activity in the PCA test (allergic reactions; single i.v. dose of 320 μmole/kg) [%] | route dependence / oral activity (allergic reactions; oral versus i.v., words) | oral activity of antiasthmatic agent (allergic symptoms)
12.3 | CC1CC=C(Nc2ccccc2)c2ncc(C(=O)O)c(=O)n21 (stereo not shown) [Example 1, 9-(phenyl-amino)-6-methyl-4-oxo-6,7-dihydro-4H-pyrido[1,2-a]pyrimidine-3-carboxylic acid] | 1.3 | 60 | 100 |  | 
 | O=C(O)c1cc(=O)c2c(OCC(O)COc3cccc4oc(C(=O)O)cc(=O)c34)cccc2o1 [disodium chromoglycolate, reference compound] | 1 |  |  | effective only when administered intravenously | not active orally
